# According to patent publication US20040176349A1, “Antibacterial composition” (priority 2001, published 2004):
# Like-named read-outs stand apart in the source and are kept apart here.
# Legend:
# [1] = tested on: E. faecalis SFZ (vancomycin-sensitive isolate, VSE); assay: Time-kill experiment (viable count); format: cell-based; details: FIG. 2, ceftazidime alone at 128 mg/L, PFOB alone at 64 mg/L
# Text: FIG. 2 is a graph of Log viable count (cfu per ml) against time (in hours) for the VSE isolate in the presence or absence of the drugs. […] The isolates used in the Example are purely illustrative and not especially unusual.
# [2] = tested on: Enterococcus strains; assay: MIC against Enterococcus strains, summary of Example 1; format: cell-based; details: for MIC: Enterococcus, vancomycin-susceptible strains and one vancomycin-resistant strain
# Experimental: (§1) The minimum inhibitory concentration (MIC) of the compounds was determined using the microbroth dilution technique in accordance with NCCLS guidelines, employing Mueller-Hinton broth (National Committee for Clinical Laboratory Standards, NCCLS, 1995 “Methods for dilution antimicrobial susceptibility tests for bacteria that grow aerobically”—approved standard M7-A5).
# (§2) The compounds were tested in isolation, at different concentrations.
# [3] = tested on: E.faecalis 78097 (van B); assay: Checkerboard microdilution MIC with PFOB, Table 2; format: cell-based
# Method in brief: (§3)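 Checkerboard microdilution pairing PFOB with other antibiotics. Synergy scored by FIC index: combination FIC <0.5 synergy, 0.5-2.0 indifference, >2 antagonism, with synergy requiring at least a 4-fold reduction for each compound.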
# [4] = tested on: E. faecalis ATCC 29212; assay: Checkerboard microdilution MIC with PFOB, Table 2; format: cell-based
# Method in brief: as §3
# [5] = tested on: E. faecalis 5659 (vanA); assay: Checkerboard microdilution MIC with PFOB, Table 2; format: cell-based; details: E. faecalis 5659 (vanA)
# Method in brief: as §3
# [6] = tested on: VRE 300 1562; assay: MIC, microbroth dilution (NCCLS), Table 1; format: cell-based, Enterococcus; details: Enterococcus, VRE
# Experimental: as §1, §2
# [7] = tested on: VRE 1662; assay: MIC, microbroth dilution (NCCLS), Table 1; format: cell-based, Enterococcus; details: Enterococcus, VRE
# Experimental: as §1, §2
# [8] = tested on: VRE 300 1590; assay: MIC, microbroth dilution (NCCLS), Table 1; format: cell-based, Enterococcus; details: Enterococcus, VRE
# Experimental: as §1, §2
# [9] = tested on: VRE 300 2043; assay: MIC, microbroth dilution (NCCLS), Table 1; format: cell-based, Enterococcus; details: Enterococcus, VRE
# Experimental: as §1, §2
# [10] = tested on: E. faecalis ATCC 10541; assay: Checkerboard microdilution MIC with PFOB, Table 2; format: cell-based; details: for MIC: Enterococcus faecalis, ATCC10541
# Text: The aim of the study was to detect any synergy between PFOB and the other antibiotics. For the purposes of the study, synergy was defined in accordance with the FIC (fractional inhibitory concentration) index, as disclosed by Lorian (1991, In “Antibiotics in Laboratory Medicine” 3rd edition, Eds. Williams & Wilkins; esp. p 434-443).
# [11] = tested on: E. faecium NCTC 7171; assay: MIC, microbroth dilution (NCCLS), Table 1; format: cell-based; details: Enterococcus faecium, NCTC7171
# Experimental: as §1, §2
# [12] = tested on: E. faecalis Phillips; assay: MIC, microbroth dilution (NCCLS), Table 1; format: cell-based; details: Enterococcus faecalis
# Experimental: as §1, §2
# [13] = tested on: E. hirae ATCC 10541; assay: MIC, microbroth dilution (NCCLS), Table 1; format: cell-based; details: Enterococcus hirae, ATCC10541
# Experimental: as §1, §2
# [14] = tested on: E. faecalis 24592; assay: MIC, microbroth dilution (NCCLS), Table 1; format: cell-based; details: Enterococcus faecalis, 24592
# Experimental: as §1, §2
# [15] = tested on: E. faecalis NCTC 5957; assay: MIC, microbroth dilution (NCCLS), Table 1; format: cell-based; details: Enterococcus faecalis, NCTC5957
# Experimental: as §1, §2
# [16] = tested on: E. faecalis SFZ; assay: MIC, microbroth dilution (NCCLS), Table 1; format: cell-based; details: Enterococcus faecalis
# Experimental: as §1, §2
structure (smiles),measurement,setting,value
"CC(C)(O/N=C(\C(=O)N[C@@H]1C(=O)N2C(C(=O)[O-])=C(C[n+]3ccccc3)CS[C@H]12)c1csc(N)n1)C(=O)O [CAZ, ceftazidime]","effect on growth (viable count, time-kill)",[1],some inhibitory effect on growth
same,MIC,"[2]; read-out: MIC of CAZ used in conjunction with PFOB, PFOB at 4 mg/L",< 0.06 µg/mL
same,MIC,[2]; read-out: MIC of CAZ used in isolation,> 128 µg/mL
same,reduction in the MIC of CAZ by PFOB,[2]; PFOB at 4 mg/L versus CAZ in isolation,"about 2,000 fold"
same,activity in isolation against the Enterococcus strains tested,"[2]; compound alone, all strains of Table 1, in words",no activity
same,Synergy FIC,"[3]; E.faecalis 78097 (van B), FIC index of PFOB + labelled partner, <0.5 = synergy",0.156
same,MIC of partner antibiotic in the presence of PFOB at 0.5 mg/L,"[3]; E.faecalis 78097 (van B), PFOB 0.5 mg/L",>64 mg/L
same,MIC of partner antibiotic in the presence of PFOB at 1 mg/L,"[3]; E.faecalis 78097 (van B), PFOB 1 mg/L",>64 mg/L
same,MIC of partner antibiotic in the presence of PFOB at 2 mg/L,"[3]; E.faecalis 78097 (van B), PFOB 2 mg/L",32 mg/L
same,MIC of partner antibiotic in the presence of PFOB at 4 mg/L,"[3]; E.faecalis 78097 (van B), PFOB 4 mg/L",16 mg/L
same,MIC of partner antibiotic in the presence of PFOB at 8 mg/L,"[3]; E.faecalis 78097 (van B), PFOB 8 mg/L",16 mg/L
same,MIC of partner antibiotic in the presence of PFOB at 16 mg/L,"[3]; E.faecalis 78097 (van B), PFOB 16 mg/L",8 mg/L
same,MIC of partner antibiotic in the presence of PFOB at 32 mg/L,"[3]; E.faecalis 78097 (van B), PFOB 32 mg/L",4 mg/L
same,MIC of PFOB & Partner: Partner concentration,"[3]; E.faecalis 78097 (van B), optimum synergistic combination with PFOB, second figure (partner)",16 mg/L
same,MIC,"[3]; Enterococcus faecalis, E.faecalis 78097 (van B), partner antibiotic alone, read-out: MIC (alone) of Partner",> 64 µg/mL
same,synergy with PFOB,"[3]; checkerboard, E. faecalis 78097, vanB-mediated vancomycin resistance, in words",Synergy was also observed
same,Synergy FIC,"[4]; E. faecalis ATCC 29212, FIC index of PFOB + labelled partner, <0.5 = synergy",0.188
same,MIC of partner antibiotic in the presence of PFOB at 0.5 mg/L,"[4]; E. faecalis ATCC 29212, PFOB 0.5 mg/L",>64 mg/L
same,MIC of partner antibiotic in the presence of PFOB at 1 mg/L,"[4]; E. faecalis ATCC 29212, PFOB 1 mg/L",>64 mg/L
same,MIC of partner antibiotic in the presence of PFOB at 2 mg/L,"[4]; E. faecalis ATCC 29212, PFOB 2 mg/L",>64 mg/L
same,MIC of partner antibiotic in the presence of PFOB at 4 mg/L,"[4]; E. faecalis ATCC 29212, PFOB 4 mg/L",32 mg/L
same,MIC of partner antibiotic in the presence of PFOB at 8 mg/L,"[4]; E. faecalis ATCC 29212, PFOB 8 mg/L",16 mg/L
same,MIC of partner antibiotic in the presence of PFOB at 16 mg/L,"[4]; E. faecalis ATCC 29212, PFOB 16 mg/L",8 mg/L
same,MIC of partner antibiotic in the presence of PFOB at 32 mg/L,"[4]; E. faecalis ATCC 29212, PFOB 32 mg/L",2 mg/L
same,MIC,"[4]; Enterococcus faecalis, ATCC29212, E. faecalis ATCC 29212, partner antibiotic alone, read-out: MIC (alone) of Partner",> 64 µg/mL
same,synergy with PFOB,"[4]; checkerboard, E. faecalis ATCC 29212, vancomycin-susceptible, in words",marked synergy
same,MIC of partner antibiotic in the presence of PFOB at 0.5 mg/L,[5]; PFOB 0.5 mg/L,>64 mg/L
same,MIC of partner antibiotic in the presence of PFOB at 1 mg/L,[5]; PFOB 1 mg/L,>64 mg/L
same,MIC of partner antibiotic in the presence of PFOB at 2 mg/L,[5]; PFOB 2 mg/L,>64 mg/L
same,MIC of partner antibiotic in the presence of PFOB at 4 mg/L,[5]; PFOB 4 mg/L,>64 mg/L
same,MIC of partner antibiotic in the presence of PFOB at 8 mg/L,[5]; PFOB 8 mg/L,>64 mg/L
same,MIC of partner antibiotic in the presence of PFOB at 16 mg/L,[5]; PFOB 16 mg/L,>64 mg/L
same,MIC of partner antibiotic in the presence of PFOB at 32 mg/L,[5]; PFOB 32 mg/L,0.25 mg/L
same,MIC,"[5]; Enterococcus faecalis, partner antibiotic alone, read-out: MIC (alone) of Partner",> 64 µg/mL
same,MIC,[6],> 128 µg/mL
same,MIC,[7],> 128 µg/mL
same,MIC,[8],> 128 µg/mL
same,MIC,[9],> 128 µg/mL
same,MIC of partner antibiotic in the presence of PFOB at 0.5 mg/L,"[10]; E. faecalis ATCC 10541, PFOB 0.5 mg/L",>64 mg/L
same,MIC of partner antibiotic in the presence of PFOB at 1 mg/L,"[10]; E. faecalis ATCC 10541, PFOB 1 mg/L",>64 mg/L
same,MIC of partner antibiotic in the presence of PFOB at 2 mg/L,"[10]; E. faecalis ATCC 10541, PFOB 2 mg/L",>64 mg/L
same,MIC of partner antibiotic in the presence of PFOB at 4 mg/L,"[10]; E. faecalis ATCC 10541, PFOB 4 mg/L",>64 mg/L
same,MIC of partner antibiotic in the presence of PFOB at 8 mg/L,"[10]; E. faecalis ATCC 10541, PFOB 8 mg/L",8 mg/L
same,MIC of partner antibiotic in the presence of PFOB at 16 mg/L,"[10]; E. faecalis ATCC 10541, PFOB 16 mg/L",4 mg/L
same,MIC of partner antibiotic in the presence of PFOB at 32 mg/L,"[10]; E. faecalis ATCC 10541, PFOB 32 mg/L",<0.06 mg/L
same,MIC,"[10]; E. faecalis ATCC 10541, optimum synergistic combination of PFOB with the labelled partner, first figure (PFOB), read-out: MIC of PFOB & Partner: PFOB concentration",8 µg/mL
same,MIC,"[10]; E. faecalis ATCC 10541, optimum synergistic combination with PFOB, second figure (partner), read-out: MIC of PFOB & Partner: Partner concentration",8 µg/mL
same,MIC,"[10]; E. faecalis ATCC 10541, partner antibiotic alone, read-out: MIC (alone) of Partner",> 64 µg/mL
same,synergy with PFOB,"[10]; checkerboard, E. faecium ATCC 10541 (as named), vancomycin-susceptible, in words",marked synergy
same,MIC,[11],> 128 µg/mL
same,MIC,[12],> 128 µg/mL
same,MIC,[13],> 128 µg/mL
same,MIC,[14],> 128 µg/mL
same,MIC,[15],> 128 µg/mL
same,MIC,[16],> 128 µg/mL
